Results reported in patent US8063028B2, “Heterocyclic antiviral compounds” (Roche Palo Alto LLC, priority 2007, dated 2011).
Counter-ions that a name gives are not always drawn.

Columns and labels:
HIV-1 RT = HIV-1 RT (Human immunodeficiency virus type 1 group M subtype B, UniProt P04585); experiment: HIV reverse transcriptase assay, inhibitor IC50 determination; type: biochemical; conditions: purified recombinant enzyme, poly(rA)/oligo(dT)16 template-primer, 37° C. 30 min
Experimental: Reactions were initiated by adding 4 nM HIV-1 RT and after incubation at 37° C. for 30 min, they were stopped by the addition of 50 μl ice cold 20% TCA and allowed to precipitate at 4° C. for 30 min. The precipitates were collected by applying vacuum to the plate and sequentially washing with 3×200 μl of 10% TCA and 2×200 μl 70% ethanol. Finally, the plates were dried and radioactivity counted in a Packard TopCounter after the addition of 25 μl scintillation fluid per well. IC50's were calculated by plotting % inhibition versus log10 inhibitor concentrations. Representative IC50 data is depicted in TABLE 2.

| SMILES | melting point [°C] | IC50 (HIV-1 RT) [nM] |
| --- | --- | --- |
| N#Cc1cc(Cl)cc(Oc2c(Br)ccc(Cc3nn(COC(=O)CCCCC(=O)O)c4nnccc34)c2F)c1 [Compound I-15, Hexanedioic acid mono-{3-[4-bromo-3-(3-chloro-5-cyano-phenoxy)-2-fluoro-benzyl]-pyrazolo[3,4-c]pyridazin-1-ylmethyl}ester] | 159 to 160 | – |
| N#Cc1cc(Cl)cc(Oc2c(Br)ccc(Cc3nn(COC(=O)CCC(=O)O)c4nnccc34)c2F)c1 (as salt: sodium) [Compound I-3, Succinic acid mono-{3-[4-bromo-3-(3-chloro-5-cyano-phenoxy)-2-fluoro-benzyl]-pyrazolo[3,4-c]pyridazin-1-ylmethyl}ester] | 172.6 to 173.9 | – |
| N#Cc1cc(C#N)cc(Oc2c(Br)ccc(Cc3nn(COC(=O)CCC(=O)O)c4nnccc34)c2F)c1 [Compound I-4, Succinic acid mono-{3-[4-bromo-3-(3,5-dicyano-phenoxy)-2-fluoro-benzyl]-pyrazolo[3,4-c]pyridazin-1-ylmethyl}ester] | 175.2 to 176.5 | – |
| N#Cc1cc(Cl)cc(Oc2c(Cl)ccc(Cc3nn(COC(=O)CCC(=O)O)c4nnccc34)c2F)c1 [Compound I-5, Succinic acid mono-{3-[4-chloro-3-(3-chloro-5-cyano-phenoxy)-2-fluoro-benzyl]-pyrazolo[3,4-c]pyridazin-1-ylmethyl}ester] | 173 to 174.8 | 7.4 |
| N#Cc1cc(Cl)cc(Oc2c(Br)ccc(Cc3nn(COC(=O)CCC(=O)O)c4ncccc34)c2F)c1 [Compound I-1, Succinic acid mono-{3-[4-bromo-3-(3-chloro-5-cyano-phenoxy)-2-fluoro-benzyl]-pyrazolo[3,4-b]pyridin-1-ylmethyl}ester] | 183 to 184 | – |
| N#Cc1cc(Cl)cc(Oc2c(Br)ccc(Cc3nn(COC(=O)CCCC(=O)O)c4nnccc34)c2F)c1 [Compound I-7, Pentanedioic acid mono-{3-[4-bromo-3-(3-chloro-5-cyano-phenoxy)-2-fluoro-benzyl]-pyrazolo[3,4-c]pyridazin-1-ylmethyl}ester] | 149.8 to 150.7 | – |
| N#Cc1cc(Cl)cc(Oc2c(Br)ccc(Cc3nn(COC(=O)CCC(=O)O)c4nnccc34)c2F)c1 [Compound I-3, Succinic acid mono-{3-[4-bromo-3-(3-chloro-5-cyano-phenoxy)-2-fluoro-benzyl]-pyrazolo[3,4-c]pyridazin-1-ylmethyl}ester] | – | 4.9 |
| N#Cc1cc(C#N)cc(Oc2c(Cl)ccc(Cc3nn(COC(=O)CCC(=O)O)c4nnccc34)c2F)c1 [Compound I-12, Succinic acid mono-{3-[4-chloro-3-(3,5-dicyano-phenoxy)-2-fluoro-benzyl]-pyrazolo[3,4-c]pyridazin-1-ylmethyl}ester] | 166.1 to 169.9 | – |
| N#Cc1cc(Cl)cc(Oc2c(Cl)ccc(Cc3nn(COC(=O)CCCC(=O)O)c4nnccc34)c2F)c1 [Compound I-14, Pentanedioic acid mono-{3-[4-chloro-3-(3-chloro-5-cyano-phenoxy)-2-fluoro-benzyl]-pyrazolo[3,4-c]pyridazin-1-ylmethyl}ester] | 176 to 178 | – |

The next lines start with results.

| melting point [°C] | SMILES | IC50 (HIV-1 RT) [nM] |
| --- | --- | --- |
| 187.7 to 188.5 | N#Cc1cc(Cl)cc(Oc2c(Br)ccc(Cc3nn(C(=O)c4cccnc4)c4nnccc34)c2F)c1 [Compound I-17, 3-{6-Bromo-2-fluoro-3-[1-(pyridine-3-carbonyl)-1H-pyrazolo[3,4-c]pyridazin-3-ylmethyl]-phenoxy}-5-chloro-benzonitrile] | – |
| 195.5 to 196.9 | CC(=O)n1nc(Cc2ccc(Br)c(Oc3cc(Cl)cc(C#N)c3)c2F)c2ccnnc21 [Compound I-16, 3-[3-(1-Acetyl-1H-pyrazolo[3,4-c]pyridazin-3-ylmethyl)-6-bromo-2-fluoro-phenoxy]-5-chloro-benzonitrile] | – |
| 157.7 to 159.3 | CC(C)C(=O)n1nc(Cc2ccc(Br)c(Oc3cc(Cl)cc(C#N)c3)c2F)c2ccnnc21 [Compound I-21, 3-[6-Bromo-2-fluoro-3-(1-isobutyryl-1H-pyrazolo[3,4-c]pyridazin-3-ylmethyl)-phenoxy]-5-chloro-benzonitrile] | – |
| 139 to 140 | CCOC(=O)n1nc(Cc2ccc(Br)c(Oc3cc(Cl)cc(C#N)c3)c2F)c2ccnnc21 [Compound I-11, 3-[4-Bromo-3-(3-chloro-5-cyano-phenoxy)-2-fluoro-benzyl]-pyrazolo[3,4-c]pyridazine-1-carboxylic acid ethyl ester] | – |
| 119 to 122 | CC(CN(C)C)OC(=O)n1nc(Cc2ccc(Br)c(Oc3cc(Cl)cc(C#N)c3)c2F)c2ccnnc21 (centres unmarked) (as salt: hydrochloride) [Compound I-13, 3-[4-Bromo-3-(3-chloro-5-cyano-phenoxy)-2-fluoro-benzyl]-pyrazolo[3,4-c]pyridazine-1-carboxylic acid 2-dimethylamino-1-methyl-ethyl ester] | – |
| 164 to 165 | COC(=O)n1nc(Cc2ccc(Br)c(Oc3cc(Cl)cc(C#N)c3)c2F)c2ccnnc21 [Compound I-6, 3-[4-Bromo-3-(3-chloro-5-cyano-phenoxy)-2-fluoro-benzyl]-pyrazolo[3,4-c]pyridazine-1-carboxylic acid methyl ester] | – |
| 166.1 to 166.9 | CC(C)OC(=O)n1nc(Cc2ccc(Br)c(Oc3cc(Cl)cc(C#N)c3)c2F)c2ccnnc21 [Compound I-20, 3-[4-Bromo-3-(3-chloro-5-cyano-phenoxy)-2-fluoro-benzyl]-pyrazolo[3,4-c]pyridazine-1-carboxylic acid isopropyl ester] | – |
| 155 to 156 | CC(C)[C@H](N)C(=O)OCn1nc(Cc2ccc(Br)c(Oc3cc(Cl)cc(C#N)c3)c2F)c2ccnnc21.Cl [Compound I-9, (S)-2-Amino-3-methyl-butyric acid 3-[4-bromo-3-(3-chloro-5-cyano-phenoxy)-2-fluoro-benzyl]-pyrazolo[3,4-c]pyridazin-1-ylmethyl ester] | – |
| 71.1 to 73 | CC(=O)OCn1nc(Cc2ccc(Br)c(Oc3cc(Cl)cc(C#N)c3)c2F)c2ccnnc21 [Compound I-8, Acetic acid 3-[4-bromo-3-(3-chloro-5-cyano-phenoxy)-2-fluoro-benzyl]-pyrazolo[3,4-c]pyridazin-1-ylmethyl ester] | – |
| 146 to 147 | N#Cc1cc(Cl)cc(Oc2c(Br)ccc(Cc3nn(COC(=O)COCC(=O)O)c4nnccc34)c2F)c1 [Compound I-10, {3-[4-Bromo-3-(3-chloro-5-cyano-phenoxy)-2-fluoro-benzyl]-pyrazolo[3,4-c]pyridazin-1-ylmethoxycarbonylmethoxy}-acetic acid] | – |
